What was measured:
[1] = Dehydration of form H-4 to anhydrous form P44 on drying / sensitivity to relative humidity; type: physicochemical
Procedure: Additionally, the ternary solvent mixture THF/water/MeCN can be used. If the resultant H-4 form is dried at a temperature greater than 60° C., then it converts to an anhydrous form of H-4, designated as P44. […] In practice, to minimize conversion to the P44 form, the drying can be conducted under a stream of humidified nitrogen gas.

[2] = Relationship of the crystalline forms: relative thermodynamic stability and critical water activity; type: physicochemical; settings: ambient conditions; T1F-2 compared with T1F-1
Text: Herein we describe three crystalline forms of the monohydrochloride salt, Compound I, that have been prepared and identified: the monohydrochloride monohydrate H-4 form and two monohydrochloride forms designated as […]-1 and […]-2. […] The critical water activity between the […]-2 and H-4 forms is in the range 0.05-0.24.

Compound | sensitivity to relative humidity [1] | drying temperature at which H-4 converts to anhydrous form P44 ([1]; drying of the resultant H-4 form) | temperature of dehydration to the P44 form ([1]; under a stream of dry nitrogen gas) [°C] | relative thermodynamic stability of the crystalline forms [2]
C=C(C)[C@@H]1CC[C@]2(NCCN3CCS(=O)(=O)CC3)CC[C@]3(C)[C@H](CC[C@@H]4[C@@]5(C)CC=C(c6ccc(C(=O)O)cc6)C(C)(C)[C@@H]5CC[C@]43C)[C@@H]12.Cl [Form H-4, 4-((1R,3aS,5aR,5bR, 7aR, 11aS,11bR,13aR,13bR)-3a-((2-(1,1-dioxidothiomorpholino)ethyl)amino)-5a,5b,8,8,11a-pentamethyl-1-(prop-1-en-2-yl)-2,3,3a,4,5,5a,5b,6,7,7a,8, 11,11a,11b, 12,13,13a,13b-octadecahydro-1H-cyclopenta[a]chrysen-9-yl)benzoic acid hydrochloride hydrate] | sensitive to relative humidity | greater than 60 °C | ≥ 30 | 
C=C(C)[C@@H]1CC[C@]2(NCCN3CCS(=O)(=O)CC3)CC[C@]3(C)[C@H](CC[C@@H]4[C@@]5(C)CC=C(c6ccc(C(=O)O)cc6)C(C)(C)[C@@H]5CC[C@]43C)[C@@H]12.Cl [Form T1F-2, 4-((1R,3aS,5aR,5bR, 7aR, 11aS,11bR,13aR,13bR)-3a-((2-(1,1-dioxidothiomorpholino)ethyl)amino)-5a,5b,8,8,11a-pentamethyl-1-(prop-1-en-2-yl)-2,3,3a,4,5,5a,5b,6,7,7a,8, 11,11a,11b, 12,13,13a,13b-octadecahydro-1H-cyclopenta[a]chrysen-9-yl)benzoic acid hydrochloride] |  |  |  | thermodynamically more stable than T1F-1 form

Reference: patent US20180094019A1, “CRYSTALLINE FORMS OF MODIFIED TRITERPENOID HYDROCHLORIDE SALTS WITH HIV MATURATION INHIBITOR ACTIVITY” (VIIV HEALTHCARE UK (NO.4) LIMITED, priority 2015, published 2018)
